According to ChEMBL document CHEMBL3638586, “Inhibition of memapsin 1 cleavage in the treatment of diabetes” (2015):

Tests used:
Beta-secretase 2 = molecular target: T1, Beta-secretase 2 (Homo sapiens, UniProt Q9Y5Z0); test: (§1) Inhibition Assay: Previously, one of the following compounds discussed below have been studied in memapsin 2 inhibition (Ghosh et al., 2008), which the others are previously unpublished. Given the closely related substrate specificity for memapsin 1 and memapsin 2, the inventors chose to screen these previously identified memapsin 2 inhibitors for lead compounds as memapsin 1 inhibitors. Recombinant memapsin 1 ectodomain was prepared as described by Turner et al. (2002) and assayed using a commercially purchased fluorescent substrate.
T1 sequence (Q9Y5Z0 whole entry): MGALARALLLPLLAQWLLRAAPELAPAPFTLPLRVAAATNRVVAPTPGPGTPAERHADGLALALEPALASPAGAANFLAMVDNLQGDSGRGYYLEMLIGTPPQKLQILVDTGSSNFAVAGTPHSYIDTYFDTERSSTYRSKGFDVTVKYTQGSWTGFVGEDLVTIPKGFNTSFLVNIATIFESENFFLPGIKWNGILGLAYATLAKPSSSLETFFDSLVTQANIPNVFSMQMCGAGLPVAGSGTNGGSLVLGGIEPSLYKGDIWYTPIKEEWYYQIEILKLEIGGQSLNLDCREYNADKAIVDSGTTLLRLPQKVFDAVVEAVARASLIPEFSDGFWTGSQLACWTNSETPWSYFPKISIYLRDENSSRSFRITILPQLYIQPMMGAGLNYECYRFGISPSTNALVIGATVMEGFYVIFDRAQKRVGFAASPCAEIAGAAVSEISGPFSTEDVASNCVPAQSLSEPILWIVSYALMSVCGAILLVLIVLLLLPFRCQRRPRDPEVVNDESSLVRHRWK

Beta-secretase 1 = Beta-secretase 1 (Homo sapiens, UniProt P56817); test: as §1
Chain of Beta-secretase 1 (P56817 whole entry): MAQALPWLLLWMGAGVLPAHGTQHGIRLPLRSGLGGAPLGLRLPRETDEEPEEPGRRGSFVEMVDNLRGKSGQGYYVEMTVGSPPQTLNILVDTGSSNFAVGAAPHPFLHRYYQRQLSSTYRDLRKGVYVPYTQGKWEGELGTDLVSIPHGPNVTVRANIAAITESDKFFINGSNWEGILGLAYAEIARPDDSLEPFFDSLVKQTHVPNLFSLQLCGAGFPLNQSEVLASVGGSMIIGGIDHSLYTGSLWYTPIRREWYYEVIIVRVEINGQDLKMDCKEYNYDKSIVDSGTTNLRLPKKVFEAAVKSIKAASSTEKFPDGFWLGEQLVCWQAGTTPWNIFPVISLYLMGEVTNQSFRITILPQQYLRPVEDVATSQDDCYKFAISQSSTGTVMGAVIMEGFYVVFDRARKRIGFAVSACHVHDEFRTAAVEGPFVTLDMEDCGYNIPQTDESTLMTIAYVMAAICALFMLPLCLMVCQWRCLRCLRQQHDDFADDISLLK

SMILES	Ki (Beta-secretase 2)	Ki (Beta-secretase 1)	IC50 (Beta-secretase 2)
CCCC(O)N(NC[C@H](Cc1ccccc1)NC(=O)c1cc2c3c(c1)c(CC)cn3CC1(CC1)S(=O)(=O)N2C)C(=O)NC(C)C (stereo partly drawn)	30 nM		
CCc1cn2c3c(cc(C(=O)N[C@@H](Cc4ccccc4)C(O)CNCc4cccc(C(F)(F)F)c4)cc13)N(C)S(=O)(=O)C1(CC1)C2 (stereo partly drawn)	521 nM		
CCCC(O)C(NCC(O)C(Cc1ccccc1)NC(=O)c1cccc(C(=O)N(C)C(C)c2ccccc2)c1)C(=O)NCC(C)C (stereo not drawn)	0.02 nM	5250 nM	
CCc1cn2c3c(cc(C(=O)N[C@@H](Cc4ccccc4)[C@H](O)CNC(COC)c4cccc(C(F)(F)F)c4)cc13)N(C)S(=O)(=O)C1(CC1)C2 (stereo partly drawn)	199 nM		
NC1=Nc2ccc(Oc3ccccc3)cc2CN1C(CCC(=O)N(CC1CCC(=O)N1)C1CCCCC1)C1CCCCC1 (stereo not drawn)	48 nM		
CC(C)CN1CCNC(C(O)C(Cc2ccccc2)NC(=O)c2cc(C(=O)NC(C)c3ccccc3)cc(N(C)S(C)(=O)=O)c2)C1 (stereo not drawn)	6060 nM		
COCC(NC(=O)OCC(C1CCCCC1)N1Cc2cc(Oc3ccccc3)ccc2N=C1N)C(=O)N(C)C (stereo not drawn)	350 nM		
Cc1ncsc1CN(C(=O)CCC(C1CCCCC1)N1Cc2cc(Oc3ccccc3)ccc2N=C1N)C1CCCCC1 (stereo not drawn)	53 nM		
Cc1oncc1CN(C(=O)CCC(C1CCCCC1)N1Cc2cc(Oc3ccccc3)ccc2N=C1N)C1CCCCC1 (stereo not drawn)	70 nM		
COc1ccc(C(C(C)O)C(Cc2ccccc2)NC(=O)c2cc(C(=O)NC(C)c3ccccc3)cc(N(C)S(C)(=O)=O)c2)cc1 (stereo not drawn)			700 nM
CC(CN1Cc2cc(Oc3ccccc3)ccc2N=C1N)C(=O)NCCC(C)(C)C (stereo not drawn)			500 nM
COc1cccc(C(NCC(O)C(Cc2ccccc2)NC(=O)c2cc(C(=O)NC(C)c3ccccc3)cc(N(C)S(C)(=O)=O)c2)C(C)O)c1 (stereo not drawn)			350 nM
CCCC(O)N(NC[C@H](Cc1ccccc1)NC(=O)c1cc2c3c(c1)c(CC)cn3CC1(CC1)S(=O)(=O)N2C)C(=O)NCC(C)C (stereo partly drawn)	11 nM		

The next lines start with the values.

Ki (Beta-secretase 2)	Ki (Beta-secretase 1)	IC50 (Beta-secretase 2)	SMILES
63.1 nM	5810 nM		CC(C)CNC(=O)C(NCC(O)C(Cc1ccccc1)NC(=O)c1cccc(C(=O)N(C)C(C)c2ccccc2)c1)C(C)O (stereo not drawn)
76.6 nM	267 nM		CCCC(O)C(NCC(O)C(Cc1ccccc1)NC(=O)c1cccc(C(=O)N2CCCC2OC)c1)C(=O)NCC(C)C (stereo not drawn)
19.7 nM	6.56 nM		CCCC(O)C(NCC(O)C(Cc1ccccc1)NC(=O)c1cc(C)cc(C(=O)N2CCCC2OC)c1)C(=O)NCC(C)C (stereo not drawn)
46 nM			CSC[C@H](NC(=O)C1NOC2OCCC21)C(=O)NC(CC(C)C)[C@@H](O)CC(C)C(=O)NC(C(=O)N(C)C)C(C)C (stereo partly drawn)
53 nM			CC(C)CC(NC(=O)[C@H](CS(C)(=O)=O)NC(=O)C1NOC2OCCC21)[C@@H](O)CC(C)C(=O)NC(C(=O)N(C)C)C(C)C (stereo partly drawn)
0.0014 nM	563 nM		CCCC(O)C(NCC(O)C(Cc1ccccc1)NC(=O)c1cc(C)cc(C(=O)N(C)C(C)c2ccccc2)c1)C(=O)NCC(C)C (stereo not drawn)
37 nM			CC(C)CNC(=O)C(NCC(O)C(Cc1ccccc1)NC(=O)c1cc(C(=O)NC(C)c2ccccc2)cc(N(C)S(C)(=O)=O)c1)C(C)O (stereo not drawn)
1 nM	1660 nM		Cc1cc(C(=O)NC(Cc2ccccc2)C(O)CNC(C(=O)NCC(C)C)C(C)O)cc(C(=O)N(C)C(C)c2ccccc2)c1 (stereo not drawn)
89 nM			CC(C)CNC(=O)C(NCC(O)C(Cc1ccccc1)NC(=O)c1cc(C(=O)NC(C)c2ccc(I)cc2)cc(N(C)S(C)(=O)=O)c1)C(C)O (stereo not drawn)
